From patent publication US20240150293A1, “SPIROCYCLOHEXANE DERIVATIVES, PHARMACEUTICAL COMPOSITIONS CONTAINING THEM AND THEIR USES AS ANTI-APOPTOTIC INHIBITORS” (LES LABORATOIRES SERVIER, priority 2021, published 2024)
Where two headings read alike, the source gives them in different places.

Assays:
[1] = system: H929 multiple myeloma tumor line; test: In vitro cytotoxicity, MTT assay (Example B, Method A); format: cell-based; settings: H929 cells, 48 hours exposure, read-out: C50
Experimental: The cytotoxicity studies were carried out on the H929 multiple myeloma tumor line.
The cells are distributed onto microplates and exposed to the test compounds for 48 hours. The cell viability is then quantified by a colorimetric assay, the Microculture Tetrazolium Assay (Carmichael et al, Cancer Res. 1987, 47, 939-942).
The results are expressed in C50 which means concentration corresponding to […] of effect/inhibition.

[2] = target: Cy5-labelled Mcl1 (amino acids 171-321) C286S protein (UniProtKB Q07820) (Homo sapiens (Human), UniProt Q07820, C286S); test: Inhibition of Mcl-1 by the fluorescence quenching assay (Example A, Method B); format: binding
Cy5-labelled Mcl1 (amino acids 171-321) C286S protein, sequence (Q07820 171-321 C286S): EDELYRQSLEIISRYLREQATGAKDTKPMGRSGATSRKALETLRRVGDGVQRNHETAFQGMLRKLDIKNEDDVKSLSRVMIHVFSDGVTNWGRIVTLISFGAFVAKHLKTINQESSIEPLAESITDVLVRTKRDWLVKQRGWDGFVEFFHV
Outline: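 Cy5-labelled Mcl1 171-321 C286S (1 nM) quenched by TQ5WS-labelled PUMA peptide (10, 20 or 400 nM); displacement raises fluorescence (Ex 620/Em 680 nm). Buffer 10 mM HEPES, 150 mM NaCl, 0.05% Tween 20, pH 7.4, 5% DMSO; 2 h at room temperature, 11-point curves, IC50 converted to Ki (cKi/eKi).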

Compound	IC50 ([1]; Homo sapiens, NCI-H929, 48 h) [nM]	Ki [2] [nM]	IC50 [1] [nM]
C[C@@H](COc1ccnc2c1[C@@H](C)CCC2)C[C@H]1Cc2cccc(F)c2[C@]12CC[C@@](Nc1cccc(Cl)c1)(C(=O)O)CC2 [Example 762, (1r,2′S,4S)-4-(3-chloroanilino)-7′-fluoro-2′-[(2R)-2-methyl-3-{[(5S)-5-methyl-5,6,7,8-tetrahydroquinolin-4-yl]oxy}propyl]-2′,3′-dihydrospiro[cyclohexane-1,1′-indene]-4-carboxylic acid]	390	12.1	–
CC1CC(O)c2nccc(OC[C@H](C)C[C@H]3Cc4ccccc4[C@]34CC[C@@](Nc3cccc(Cl)c3)(C(=O)O)CC4)c21 (stereo partly drawn) [Example 610, (1r,2′S,4S)-4-(3-chloroanilino)-2′-{(2R)-3-[(7-hydroxy-5-methyl-6,7-dihydro-5H-cyclopenta[b]pyridin-4-yl)oxy]-2-methylpropyl}-2′,3′-dihydrospiro[cyclohexane-1,1′-indene]-4-carboxylic acid]	423	0.767	–
CC(O)c1ccc2c(c1)[C@]1(CC[C@@](Nc3cccc(Cl)c3)(C(=O)O)CC1)C(C[C@@H](C)COc1ccnc3c1[C@H](C)CCC3)=C2 (stereo partly drawn) [Example 857, (1r,4R)-4-(3-chloroanilino)-6′-(1-hydroxyethyl)-2′-[(2R)-2-methyl-3-{[(5R)-5-methyl-5,6,7,8-tetrahydroquinolin-4-yl]oxy}propyl]spiro[cyclohexane-1,1′-indene]-4-carboxylic acid]	143	0.169	–
C[C@@H](COc1ccnc2c1[C@H](C)CCC2)C[C@@H]1Cc2cc3c(cc2[C@]12CC[C@@](Nc1cccc(Cl)c1)(C(=O)O)CC2)OCO3 [Example 841, (1r,4R,6′R)-4-(3-chloroanilino)-6′-[(2R)-2-methyl-3-{[(5R)-5-methyl-5,6,7,8-tetrahydroquinolin-4-yl]oxy}propyl]-6′,7′-dihydro-2′H-spiro[cyclohexane-1,5′-indeno[5,6-d][1,3]dioxole]-4-carboxylic acid]	76.6	0.172	–
O=C(O)[C@]1(Nc2cccc(Cl)c2)CC[C@@]2(CC1)c1ccccc1CC2CC(COc1ccnc2ccsc12)Cc1ccccc1 (single isomer, unassigned) [Example 560, (1r,4r)-2′-{2-benzyl-3-[(thieno[3,2-b]pyridin-7-yl)oxy]propyl}-4-(3-chloroanilino)-2′,3′-dihydrospiro[cyclohexane-1,1′-indene]-4-carboxylic acid]	–	92	12600
C[C@@H](COc1ccnc2c1[C@H](C)CC=C2)C[C@H]1Cc2ccccc2[C@]12CC[C@@](Nc1cccc(Cl)c1)(C(=O)O)CC2 [Example 677, (1r,2′S,4S)-4-(3-chloroanilino)-2′-[(2R)-2-methyl-3-{[(5R)-5-methyl-5,6-dihydroquinolin-4-yl]oxy}propyl]-2′,3′-dihydrospiro[cyclohexane-1,1′-indene]-4-carboxylic acid]	245	1.18	–
C[C@@H](COc1ccnc2c1[C@H](C)CCC2)CC1=Cc2c(Cl)c(F)ccc2[C@]12CC[C@@](Nc1cccc(Cl)c1)(C(=O)O)CC2 [Example 745, (1r,4R)-4′-chloro-4-(3-chloroanilino)-5′-fluoro-2′-[(2R)-2-methyl-3-{[(5R)-5-methyl-5,6,7,8-tetrahydroquinolin-4-yl]oxy}propyl]spiro[cyclohexane-1,1′-indene]-4-carboxylic acid]	66.4	1.58	–
C[C@@H](COc1ccnc2c1[C@H](C)CCC2)CC1=Cc2cc(F)c(F)cc2[C@]12CC[C@@](Nc1cccc(Cl)c1)(C(=O)O)CC2 [Example 774, (1r,4R)-4-(3-chloroanilino)-5′,6′-difluoro-2′-[(2R)-2-methyl-3-{[(5R)-5-methyl-5,6,7,8-tetrahydroquinolin-4-yl]oxy}propyl]spiro[cyclohexane-1,1′-indene]-4-carboxylic acid]	118	1.42	–
CC1CCN(C)c2nccc(OC[C@H](C)C[C@H]3Cc4ccccc4[C@]34CC[C@@](Nc3cccc(Cl)c3)(C(=O)O)CC4)c21 (single isomer, unassigned) [Example 643]	1230	26.8	–
C[C@@H](COc1ccnc2c1[C@@H](C)CC[C@@H]2O)C[C@H]1Cc2ccccc2[C@]12CC[C@@](Nc1cccc(Cl)c1)(C(=O)O)CC2 [Example 675, (1r,2′S,4S)-4-(3-chloroanilino)-2′-[(2R)-3-{[(5S,8S)-8-hydroxy-5-methyl-5,6,7,8-tetrahydroquinolin-4-yl]oxy}-2-methylpropyl]-2′,3′-dihydrospiro[cyclohexane-1,1′-indene]-4-carboxylic acid]	6980	29.9	–
C[C@@H]1CCCc2nccc(OCC(CC3=Cc4ccccc4[C@]34CC[C@@](Nc3cccc(Cl)c3)(C(=O)O)CC4)C(F)F)c21 (single isomer, unassigned) [Example 516]	–	28	3860
C[C@@H](COc1c[nH]c2ccccc12)C[C@H]1Cc2ccccc2[C@]12CC[C@@](Nc1cccc(Cl)c1)(C(=O)O)CC2 [Example 628, (1r,2′S,4S)-4-(3-chloroanilino)-2′-{(2R)-3-[(1H-indol-3-yl)oxy]-2-methylpropyl}-2′,3′-dihydrospiro[cyclohexane-1,1′-indene]-4-carboxylic acid]	2400	69.9	–
COCc1ccc2c(c1)[C@]1(CC[C@@](Nc3cccc(Cl)c3)(C(=O)O)CC1)[C@H](C[C@@H](C)COc1ccnc3c1[C@H](C)CCC3)C2 [Example 920, (1r,2′R,4R)-4-(3-chloroanilino)-6′-(methoxymethyl)-2′-[(2R)-2-methyl-3-{[(5R)-5-methyl-5,6,7,8-tetrahydroquinolin-4-yl]oxy}propyl]-2′,3′-dihydrospiro[cyclohexane-1,1′-indene]-4-carboxylic acid]	104	3.85	–
CC(C)(COc1ccnc2sccc12)CC1Cc2ccccc2C12CCC(Nc1cccc(Cl)c1)(C(=O)O)CC2 (single isomer, unassigned) [Example 623, (1r,4r)-4-(3-chloroanilino)-2′-{2,2-dimethyl-3-[(thieno[2,3-b]pyridin-4-yl)oxy]propyl}-2′,3′-dihydrospiro[cyclohexane-1,1′-indene]-4-carboxylic acid]	–	2320	30000
C[C@@H]1CCCc2nccc(OCC(CC3Cc4ccccc4[C@]34CC[C@@](Nc3cccc(Cl)c3)(C(=O)O)CC4)C(F)F)c21 (single isomer, unassigned) [Example 520]	–	91.4	10400
C[C@@H](COc1ccnc2c1[C@H](C(F)(F)F)CCC2)C[C@H]1Cc2ccccc2[C@]12CC[C@@](Nc1cccc(Cl)c1)(C(=O)O)CC2 [Example 699, (1r,2′S,4S)-4-(3-chloroanilino)-2′-[(2R)-2-methyl-3-{[(5R)-5-(trifluoromethyl)-5,6,7,8-tetrahydroquinolin-4-yl]oxy}propyl]-2′,3′-dihydrospiro[cyclohexane-1,1′-indene]-4-carboxylic acid]	115	1.15	–
C[C@@H](COc1ccnc2c1[C@@H](C)CCC2)C[C@H]1Cc2ccc(O)cc2[C@]12CC[C@@](Nc1cccc(Cl)c1)(C(=O)O)CC2 [Example 780, (1r,2′S,4S)-4-(3-chloroanilino)-6′-hydroxy-2′-[(2R)-2-methyl-3-{[(5S)-5-methyl-5,6,7,8-tetrahydroquinolin-4-yl]oxy}propyl]-2′,3′-dihydrospiro[cyclohexane-1,1′-indene]-4-carboxylic acid]	641	8.89	–
CC(O)c1ccc2c(c1)[C@]1(CC[C@@](Nc3cccc(Cl)c3)(C(=O)O)CC1)[C@H](C[C@@H](C)COc1ccnc3ccsc13)C2 (stereo partly drawn) [Example 721, (1r,2′R,4R)-4-(3-chloroanilino)-6′-(1-hydroxyethyl)-2′-{(2R)-2-methyl-3-[(thieno[3,2-b]pyridin-7-yl)oxy]propyl}-2′,3′-dihydrospiro[cyclohexane-1,1′-indene]-4-carboxylic acid]	670	2.12	–
C[C@@H](COc1ccnc2c1[C@H](C)CCC2)C[C@H]1Cc2ccc(F)cc2[C@]12CC[C@@](Nc1cccc(Cl)c1)(C(=O)O)CC2 [Example 765, (1r,2′S,4S)-4-(3-chloroanilino)-6′-fluoro-2′-[(2R)-2-methyl-3-{[(5R)-5-methyl-5,6,7,8-tetrahydroquinolin-4-yl]oxy}propyl]-2′,3′-dihydrospiro[cyclohexane-1,1′-indene]-4-carboxylic acid]	210	0.661	–
C[C@@H](COc1ccnc2ccn(C)c12)C[C@H]1Cc2ccccc2[C@]12CC[C@@](Nc1cccc(Cl)c1)(C(=O)O)CC2 [Example 619, (1r,2′S,4S)-4-(3-chloroanilino)-2′-{(2R)-2-methyl-3-[(1-methyl-1H-pyrrolo[3,2-b]pyridin-7-yl)oxy]propyl}-2′,3′-dihydrospiro[cyclohexane-1,1′-indene]-4-carboxylic acid]	1360	9.28	–
O=C(O)[C@]1(Nc2cccc(Cl)c2)CC[C@@]2(CC1)c1ccccc1CC2CC(COc1ccnc2ccsc12)Cc1ccccc1 (single isomer, unassigned) [Example 563, (1r,4r)-2′-{2-benzyl-3-[(thieno[3,2-b]pyridin-7-yl)oxy]propyl}-4-(3-chloroanilino)-2′,3′-dihydrospiro[cyclohexane-1,1′-indene]-4-carboxylic acid]	–	43.5	3950
